Assay results taken from patent publication US20070015813A1, “Treatment of protein folding disorders” (QUEEN'S UNIVERSITY AT KINGSTON, priority 2005, published 2007).

What was measured:
[1] = molecular target: T1, Aβ1-42 (Homo sapiens, UniProt P05067); assay: Kinetic Thioflavin T (ThT) aggregation assay of Aβ1-42; format: biochemical; conditions: 20 μM Aβ1-42, kinetic ThT assay
T1 construct: Aβ^1-42 (AnaSpec, lot 45685); purchased AnaSpec
Protocol: Aβ^1-42 (1.0 mg) was either pretreated with HFIP in the same manner as Aβ^1-40 or this step was omitted. After removing HFIP, when appropriate, Aβ^1-42 was dissolved in 1% NH3 (aq.) (200 μL) and sonicated for 1 min. The solution was diluted with Tris-HCl (5.7 mL, 20 mM, pH 7.4), the pH adjusted to 7.4 with concentrated HCl (aq.) and the solution filtered using a syringe filter (0.2 μm). Prior to use in the ThT aggregation assay, the solution was diluted with an equal volume of 8 μM Thioflavin T (ThT) in Tris-HCl (20 mM, pH 7.4, 300 mM NaCl).
(§1) Aliquots (200 μL) of Aβ^1-40, Aβ^1-42, tau441 or α-synuclein with ThT or ThS were added to wells of a black polystyrene 96-well plate, followed by 2 μL of a compound in DMSO (various concentrations), or DMSO alone (controls). For α-synuclein, sodium dodecyl sulfate solution (2.0 μL, 30 mM) was also added to each well to induce aggregation. Incubations were performed in triplicate and were taken to contain 20 μM Aβ^1-40 or Aβ^1-42, 6 μM tau441 or 4 μM α-synuclein. Plates were covered with clear polystyrene lids and incubated at 37° C. in a GENios microplate reader obtained from Tecan Group Limited, Mannedorf, Zurich. For Aβ^1-40, tau441 and α-synuclein, fluorescence readings (λex=450 nm, λem=480 nm) were taken every 15 min., after first shaking at high intensity for 15 sec. and allowing to settle for 10 sec. before each reading. For Aβ^1-42, readings were taken every 5 min.
(§2) The absorbance of each compound was measured under the conditions used during testing, though on ten times the scale (2 mL), to ensure no significant quenching interfered with the assay. This step was also used to identify whether compounds were completely soluble under testing conditions.
FIG. 7 depicts inhibition of Aβ^1-42 aggregation by various synthesized bi-aromatic compounds and positive controls morin (Ono K, Yoshiike Y, Takashima A, Hasegawa K, Naiki H, Yamada M. 2003. J Neurochem 87:172-81) and RS-0406 (Walsh D M, Townsend M, Podlisny M B, Shankar G M, Fadeeva J V, Agnaf O E, Hartley D M, Selkoe D J. 2005. J Neurosci 25:2455-62) in the kinetic ThT assay. Same conditions as for Aβ^1-40, FIG. 1. Compound concentrations were 100 μM in (A), 20 μM in (B), except for RS-0406, which was tested at 100 μM, and 20 μM in (C).

[2] = molecular target: T2, Aβ1-40 (Homo sapiens, UniProt P05067); assay: Kinetic Thioflavin T (ThT) aggregation assay of Aβ1-40; format: biochemical; conditions: for inhibition of Aβ1-40 aggregation, as measured by Thioflavin T (ThT) fluorescence: 20 μM Aβ1-40, 4 μM ThT, pH 7.4, 37° C., kinetic ThT assay
T2 construct: Aβ^1-40 (AnaSpec, San Jose, Calif., lots 14212, 34862 and 34889); purchased AnaSpec, San Jose, Calif
Protocol: Aβ^1-40 (1.0 mg) was pre-treated in a 1.5 mL microfuge tube with 1,1,1,3,3,3-hexafluoroisopropanol (HFIP, 1 mL) and sonicated for 20 min. to disassemble any pre-formed Aβ aggregates. The HFIP was removed with a stream of argon and the Aβ dissolved in Tris base (5.8 mL, 20 mM, pH 10.5). The pH was adjusted to 7.4 with concentrated HCl and the solution filtered using a syringe filter (0.2 μm). This solution was used for circular dichroism studies or diluted with an equal volume of 8 μM Thioflavin T (ThT) in Tris-HCl (20 mM, pH 7.4, 300 mM NaCl) for the ThT aggregation assay.
as §1, §2
FIG. 1 depicts the inhibition of Aβ^1-40 aggregation, as measured by Thioflavin T (ThT) fluorescence, by directly-linked 3,3′-bis-indolyl compounds 0c-i (A), other bis-indoles (B), aza-indole-containing compounds (C), indole-phenols (D), indole-5-carboxylic acid-containing bi-aromatics (E), and naphthol-containing bi-aromatics (F). Aggregation conditions: 20 μM Aβ^1-40 incubated in covered black 96-well polystyrene microplates with 4 μM ThT, pH 7.4, Tris-HCl (20 mM), 150 mM NaCl, 1% DMSO. Compound concentrations are 200 μM (A,B, except where otherwise noted), 100 μM (E), 20 μM (F), or as indicated (C,D). Plates heated at 37° C. in Tecan Genios microplate reader. All incubations performed in triplicate. Prior to experiment, Aβ^1-40 pretreated with 1,1,1,3,3,3-hexafluoroisopropanol (HFIP). Fluorescence readings: fluorescence measured every 15 min. (λex=450 nm, λem=480 nm) after shaking for 15 sec. and pausing 10 sec. before taking measurement. Values are the mean of three replicates. Error bars, omitted for clarity in (B), represent standard deviation of the mean.

[3] = Colour on exposure to light and air (stability to oxidation); format: physicochemical; conditions: solid compounds, days or weeks
Protocol: The highly branched bridging groups of 1h,i,j provide additional molecular diversity to help identify favourable characteristics for compound activity against Aβ.

[4] = molecular target: T3, tau441 (Homo sapiens, UniProt P10636); assay: Kinetic Thioflavin S (ThS) assay of tau441 aggregation; format: biochemical
T3 construct: (expression construct); host or cells: E. coli BL21 D3
Protocol: The tau441 expression construct [L Buee et al. (2000). Brain Research Reviews 33:95-130] was purchased (Bioclon Inc., San Diego, Calif.) already transformed in BL21 D3 bacterial cells (Novagen/EMD Biosciences) for protein expression. Cells were grown and induced with IPTG according to Novagen's protocol. To lyse cells, Cellytic B reagent (Sigma) was used with lysozyme protease inhibitors (Sigma) and benzonase (Novagen/EMD Biosciences), according to manufacturer's methods. Lysate was cleared by centrifugation for 20 min at 10,000 RPM (SS34 rotor, Sorvall RC2b centrifuge) at 4° C. Protein was purified from the soluble fraction. Once purified, tau441 was stored at −78° C. as frozen aliquots (8.3 mg/mL, 60 μL) in Tris-HCl (50 mM, pH 7.4) until used.
Frozen aliquots of tau441 (8.3 mg/mL, 60 μL) in Tris-HCl (50 mM, pH 7.4) were allowed to thaw at room temperature (RT) before being diluted with Tris-HCl (2.64 mL, 50 mM, pH 7.4) containing dithiothreitol (DTT, 1 mM) to prevent disulfide bonds and NaN3 (50 μM) to prevent bacterial growth. After allowing to stand at RT for 1 h, Thioflavin S (ThS) was added (2.5 μL, 10.8 mM), followed by the aggregation inducer heparin (20 μL, 1.08 g/mL).
as §1
Aggregation conditions: tau441 at a concentration of either 10 μM (A) or 4 μM (B,C,D,E) was incubated in covered black 96-well polystyrene microplates alone or with 100 (A) or 50 μM compound (B,C,D,E), 5 μM ThS, pH 7.4, Tris-HCl (50 mM) containing NaN3 (50 μM), and either 1% MeOH (A) or 1% DMSO (B,C,D,E). Plates were heated at 37° C. in a Tecan GENios microplate reader. All incubations performed in triplicate, except for compound 0c in (A), which had n=1. Fluorescence readings: fluorescence measured every 15 min. (λex=450 nm, λem=480 nm) after shaking for 15 sec. and pausing 10 sec. before taking measurement. Values are the mean of three replicates. Error bars, sometimes not visible due to small size, represent standard deviation of the mean.
Aggregation conditions: tau441 at a concentration of 4 μM was incubated in covered black 96-well polystyrene microplates alone or with 50 μM (A,B,C) or 1 mM compound (D), 5 μM ThS, pH 7.4, Tris-HCl (50 mM) containing NaN3 (50 μM), and 1% DMSO. Plates were heated at 37° C. in a Tecan GENios microplate reader. All incubations performed in triplicate. Fluorescence readings: fluorescence measured every 15 min. (λex=450 nm, λem=480 nm) after shaking for 15 sec. and pausing 10 sec. before taking measurement. Values are the mean of three replicates. Error bars, sometimes not visible due to small size, represent standard deviation of the mean.

T2 sequence (P05067 672-711 limits assumed): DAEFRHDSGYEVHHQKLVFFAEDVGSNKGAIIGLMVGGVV
T1 sequence (P05067 672-713 limits assumed): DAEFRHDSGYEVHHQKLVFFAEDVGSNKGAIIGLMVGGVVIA
T3 sequence (P10636 1-441 isoform P10636-8): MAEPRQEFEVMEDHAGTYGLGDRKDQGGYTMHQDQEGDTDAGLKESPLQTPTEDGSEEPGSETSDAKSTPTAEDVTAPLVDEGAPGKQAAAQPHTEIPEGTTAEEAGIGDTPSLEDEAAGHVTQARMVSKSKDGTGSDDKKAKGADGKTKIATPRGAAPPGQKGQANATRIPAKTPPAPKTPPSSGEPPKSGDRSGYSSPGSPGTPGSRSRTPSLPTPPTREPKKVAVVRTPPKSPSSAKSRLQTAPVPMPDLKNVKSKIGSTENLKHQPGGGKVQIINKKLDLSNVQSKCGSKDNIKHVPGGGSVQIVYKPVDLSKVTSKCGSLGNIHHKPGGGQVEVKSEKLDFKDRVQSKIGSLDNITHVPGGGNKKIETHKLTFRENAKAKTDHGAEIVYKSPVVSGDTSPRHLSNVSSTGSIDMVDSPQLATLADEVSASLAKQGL

Row | SMILES | melting point | inhibition of Aβ1-42 aggregation, as measured by ThT fluorescence [1] | other results
1 | COc1ccc2[nH]cc(-c3c[nH]c4ccc(OC)cc34)c2c1 [0b, 5-methoxy-3-(5-methoxy-indol-3-yl)-indole] | 193 to 196 °C |  | 
2 | O=C(O)c1ccc2c(-c3c[nH]c4ccccc34)c[nH]c2c1 [0k, 3-(Indol-3-yl)-indole-6-carboxylic Acid] |  | inhibiting aggregation | 
3 | Oc1ccc2[nH]cc(C3CNc4ncccc43)c2c1 (stereo not shown) [0n, 3-(2,3-dihydro-7-azaindol-3-yl)-indol-5-ol] |  | inhibit aggregation | inhibition of Aβ1-40 aggregation, as measured by Thioflavin T (ThT) fluorescence [2]: inhibit aggregation
4 | B.O=C(O)c1ccc2[nH]cc(-c3c[nH]c4ncccc34)c2c1 [0o, 3-(7-azaindol-3-yl)-indole-5-carboxylic acid.BH3] |  | inhibit aggregation | inhibition of Aβ1-40 aggregation, as measured by Thioflavin T (ThT) fluorescence [2]: inhibit aggregation
5 | c1ccc2c(c1)ccn2Cc1c[nH]c2ccccc12 [1b, 3-((indol-1-yl)methyl)-indole] | 82 to 84 °C |  | 
6 | COc1ccc2c(ccn2Cc2c[nH]c3ccc(OC)cc23)c1 [1d, 5-methoxy-3-((5-methoxy-indol-1-yl)methyl)-indole] | 48 to 50 °C |  | 
7 | CC(C)(c1c[nH]c2ccc(O)cc12)c1c[nH]c2ccc(O)cc12 [1h, 2,2-Bis-(5-hydroxyindol-3-yl)propane] | 133 to 136 °C |  | colour when exposed to light and air [3]: remained a light colour
8 | CC1(C)CC(C)(c2c[nH]c3ccc(O)cc23)c2[nH]c3ccc(O)cc3c21 (stereo not shown) [1i, 1,2,3,4-Tetrahydro-3-(5-hydroxyindol-3-yl)-1,1,3-trimethylcyclopenta[b]indol-7-ol] | 132 °C (dec.) |  | colour when exposed to light and air [3]: remained a light colour
9 | CC1(C)CC2(CC(C)(C)c3c2[nH]c2ccc(O)cc32)c2[nH]c3ccc(O)cc3c21 [1j, 3,3,3′,3′-Bis(1,2,3,4-tetrahydro-1,1-dimethylcyclopenta[b]indol-7-ol)] | 140 °C (dec.) |  | colour when exposed to light and air [3]: remained a light colour
10 | O=C(O)c1ccc2[nH]cc(CCc3c[nH]c4ccc(Br)cc34)c2c1 [2b, 3-(2-(5-bromo-indol-3-yl)ethyl)-indole-5-carboxylic Acid] | 205 °C (dec.) |  | 
11 | B.COc1ccc2[nH]cc(-c3c[nH]c4ncccc34)c2c1 [10n, 3-(5-methoxyindol-3-yl)-7-azaindole.BH3] |  | inhibit aggregation | inhibition of Aβ1-40 aggregation, as measured by Thioflavin T (ThT) fluorescence [2]: inhibit aggregation
12 | Oc1cccc(Nc2ccc(Nc3cccc(O)c3)nn2)c1 [RS-0406] |  | inhibition | 
13 | Oc1ccc2cc(-c3cc4ccccc4o3)ccc2c1 [compound 64, 6-Benzofuran-2-yl-naphthalen-2-ol] |  | inhibiting aggregation | 
14 | O=C(O)c1sc2ccccc2c1-c1cc2ccccc2o1 [compound 83, 3-(Benzofuran-2-yl)-benzothiophene-2-carboxylic Acid] |  |  | effect on tau fibrillization (ThS fluorescence) ([4]; tau441 4 or 10 μM, 50 to 100 μM compound, 5 μM ThS, heparin inducer, pH 7.4, 37° C.): Other than 83 in FIG. 10E, all the bi-aromatics tested significantly modulated
15 | O=C(O)c1ccc2[nH]c(Cc3ccc(O)cc3)c(Cc3ccc(O)cc3)c2c1 [compound 102, 2,3-bis(4-hydroxybenzyl)-indole-5-carboxylic Acid] |  |  | activity against (inhibition of) Aβ1-40 aggregation at 200 μM compound ([2]; 200 μM compound, 20 μM Aβ1-40, kinetic ThT assay (FIG. 1A, 1D)): active
16 | O=C(O)c1cccnc1 [nicotinic acid] |  |  | effect on tau fibrillization (ThS fluorescence) at 1 mM ([4]; tau441 4 μM, 1 mM compound (FIG. 11D)): no effect
